Test results taken from EP4741383A1, “COMPOUND AND USE THEREOF AS ANTI-CANCER DRUG” (Tyligand Bioscience (Shanghai) Limited, priority 2023, dated 2025).

Tests used:
Format in all cases: biochemical
PTP1B = target: T1, PTP1B (Homo sapiens, UniProt P18031); experiment: Tyrosine phosphatase selectivity (pNPP substrate), PTP1B; details: for IC50: PTP1B, pNPP substrate; for IC50PTP/IC50SHP2 PTP1B: selectivity ratio PTP1B over SHP2
T1 construct: made in house; host or cells: E. coli
T1 sequence (P18031 1-435): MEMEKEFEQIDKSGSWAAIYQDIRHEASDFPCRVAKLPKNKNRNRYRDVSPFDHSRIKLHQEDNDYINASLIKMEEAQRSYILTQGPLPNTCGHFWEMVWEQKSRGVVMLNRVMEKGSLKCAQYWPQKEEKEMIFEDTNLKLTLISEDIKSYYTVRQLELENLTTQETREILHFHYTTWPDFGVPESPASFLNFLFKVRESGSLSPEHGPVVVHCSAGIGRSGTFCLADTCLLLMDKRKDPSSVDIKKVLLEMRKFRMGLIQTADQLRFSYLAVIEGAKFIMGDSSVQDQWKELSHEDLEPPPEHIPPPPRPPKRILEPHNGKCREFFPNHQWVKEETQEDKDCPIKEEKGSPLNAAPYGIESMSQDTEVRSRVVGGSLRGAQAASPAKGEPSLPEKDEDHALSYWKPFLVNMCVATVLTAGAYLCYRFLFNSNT
Method: (§1) This experiment evaluated the selectivity of the disclosed compounds against tyrosine phosphatases, including SHP1, HePTP, Laforin, LMWPTP, LYP, PTP1B, PRL2, SSU72, VHR, FAP1, STEP, CDC14A, CD45, MEG2, and PP5, all expressed and purified from E. coli.
(§2) Phosphatase activity was measured using p-nitrophenyl phosphate (pNPP) (Fisher Scientific) as the substrate in 50 mM 3,3-dimethylglutaric acid buffer (pH 7.0, containing 1 mM EDTA), with ionic strength adjusted to 0.15 M with NaCl. […] After 10-60 minutes, the reaction was quenched by adding 20 µL of 5 N NaOH. Wells without enzyme were used as controls for correction. The amount of the product, p-nitrophenol, was determined by measuring the absorbance at 405 nm using a Spectra MAX340 microplate spectrophotometer (Molecular Devices), with a molar extinction coefficient of 18000 M^-1cm^-1.
(§3) Data were analyzed using GraphPad Prism software. Dose-response curves were obtained by fitting data using the nonlinear S-curve regression Dose-response-inhibition equation, and IC50 values were calculated.

SSU72 = target: T2, SSU72 (Homo sapiens, UniProt Q9NP77); experiment: Tyrosine phosphatase selectivity (pNPP substrate), SSU72; details: for IC50: SSU72, pNPP substrate; for IC50PTP/IC50SHP2 SSU72: selectivity ratio SSU72 over SHP2
T2 construct: made in house; host or cells: E. coli
T2 sequence (Q9NP77 1-194): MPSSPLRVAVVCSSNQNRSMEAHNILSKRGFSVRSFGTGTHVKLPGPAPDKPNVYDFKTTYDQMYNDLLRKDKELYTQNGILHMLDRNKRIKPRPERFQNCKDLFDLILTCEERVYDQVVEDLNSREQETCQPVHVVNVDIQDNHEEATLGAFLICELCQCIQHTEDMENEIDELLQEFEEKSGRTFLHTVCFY
Method: as §1, §2, §3

VHR = target: T3, VHR (Homo sapiens, UniProt P51452); experiment: Tyrosine phosphatase selectivity (pNPP substrate), VHR; details: for IC50: VHR, pNPP substrate; for IC50PTP/IC50SHP2 VHR: selectivity ratio VHR over SHP2
T3 construct: made in house; host or cells: E. coli
Method: as §1, §2, §3

CD45 = target: T4, CD45 (Homo sapiens, UniProt P08575); experiment: Tyrosine phosphatase selectivity (pNPP substrate), CD45; details: for IC50: CD45, pNPP substrate; for IC50PTP/IC50SHP2 CD45: selectivity ratio CD45 over SHP2
T4 construct: made in house; host or cells: E. coli
T4 sequence (P08575 26-1306): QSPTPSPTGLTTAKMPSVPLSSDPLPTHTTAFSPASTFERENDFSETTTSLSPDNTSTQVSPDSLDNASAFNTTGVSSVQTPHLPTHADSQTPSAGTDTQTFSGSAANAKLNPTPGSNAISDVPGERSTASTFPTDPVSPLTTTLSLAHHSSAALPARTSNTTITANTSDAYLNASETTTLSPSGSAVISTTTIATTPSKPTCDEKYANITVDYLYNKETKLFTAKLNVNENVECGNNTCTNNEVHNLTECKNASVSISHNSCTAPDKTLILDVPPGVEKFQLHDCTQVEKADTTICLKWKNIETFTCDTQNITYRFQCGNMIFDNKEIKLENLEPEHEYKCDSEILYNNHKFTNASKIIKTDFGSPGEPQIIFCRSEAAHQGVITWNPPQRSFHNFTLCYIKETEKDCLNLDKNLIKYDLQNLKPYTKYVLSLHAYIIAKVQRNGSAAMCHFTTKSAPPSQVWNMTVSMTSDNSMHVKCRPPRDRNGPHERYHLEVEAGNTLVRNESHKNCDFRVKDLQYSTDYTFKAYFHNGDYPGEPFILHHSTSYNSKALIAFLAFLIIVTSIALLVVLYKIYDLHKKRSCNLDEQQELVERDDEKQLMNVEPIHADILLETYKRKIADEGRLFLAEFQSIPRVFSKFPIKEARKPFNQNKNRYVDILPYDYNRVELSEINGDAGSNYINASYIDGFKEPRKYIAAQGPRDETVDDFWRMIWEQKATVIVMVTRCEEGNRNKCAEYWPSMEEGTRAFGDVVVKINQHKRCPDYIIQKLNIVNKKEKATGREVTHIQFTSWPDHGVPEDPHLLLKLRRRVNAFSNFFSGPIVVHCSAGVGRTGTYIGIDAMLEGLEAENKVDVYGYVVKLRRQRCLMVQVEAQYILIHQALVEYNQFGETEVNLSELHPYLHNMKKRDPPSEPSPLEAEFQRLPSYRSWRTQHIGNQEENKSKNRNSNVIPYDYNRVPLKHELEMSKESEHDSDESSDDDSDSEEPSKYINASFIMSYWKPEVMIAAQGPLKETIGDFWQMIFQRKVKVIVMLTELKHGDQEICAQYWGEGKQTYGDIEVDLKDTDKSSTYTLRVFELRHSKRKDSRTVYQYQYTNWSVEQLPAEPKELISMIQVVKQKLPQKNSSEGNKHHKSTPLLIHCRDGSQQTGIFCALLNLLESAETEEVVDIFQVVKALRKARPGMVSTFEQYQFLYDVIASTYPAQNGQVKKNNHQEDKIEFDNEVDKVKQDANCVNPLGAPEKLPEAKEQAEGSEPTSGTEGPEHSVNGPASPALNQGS
Method: as §1, §2, §3

T3 sequence (P51452 whole entry, species assumed): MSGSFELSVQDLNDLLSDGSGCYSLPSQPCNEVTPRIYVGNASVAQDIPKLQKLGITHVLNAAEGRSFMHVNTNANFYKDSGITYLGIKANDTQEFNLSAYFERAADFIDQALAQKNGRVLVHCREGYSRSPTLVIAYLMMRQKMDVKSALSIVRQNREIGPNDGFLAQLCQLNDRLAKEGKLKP

Structure (SMILES)	IC50 (PTP1B) [µM]	IC50PTP/IC50SHP2 PTP1B (PTP1B)	IC50 (SSU72) [µM]	IC50PTP/IC50SHP2 SSU72 (SSU72)	IC50 (VHR) [µM]	IC50PTP/IC50SHP2 VHR (VHR)	IC50 (CD45) [µM]	IC50PTP/IC50SHP2 CD45 (CD45)
Cn1cc(-c2ccc(NC(=O)C(=O)Nc3ccc(-c4cc5cc(F)c(-c6noc(=O)[nH]6)cc5n4C4CCC4)cc3)cc2)cn1 [Example 123]	1.2	8.5	> 100	709.2	2.44	17.3	4.27	30.3
O=C(Nc1ccc(-c2cc3cc(F)c(-c4nnn[nH]4)cc3n2C2CCC2)cc1)C(=O)Nc1ccc(N2CC3COCC3C2)cc1 (stereo not shown) [Example 114]	0.47	6.5	0.09	1.2	2.14	29.7	1.81	25.1
Cn1c(-c2cccc(NC(=O)C(=O)Nc3ccc(-c4ccsc4)cc3)c2)c(I)c2cc(C(=O)O)c(O)cc21 [Example 11a-1, reference compound]	2.29	21.2	1.3	12.0	3.2	29.6		
O=C(Nc1ccc(-c2ccsc2)cc1)C(=O)Nc1ccc(-c2cc3ccc(-c4nnn[nH]4)nc3n2C2CCC2)cc1 [Example 129]	8.5	144.1	35.8	606.8	< 3	50.8	41.5	703.4
O=C(Nc1ccc(-c2ccsc2)cc1)C(=O)Nc1ccc(-c2oc3cc(F)c(-c4nnn[nH]4)cc3c2C2CCC2)cc1 [Example 130]	11.6	464	< 3	120	< 3	120	> 50	2000
CC1(n2c(-c3ccc(NC(=O)C(=O)Nc4ccc(N5CCC6(CCOC6)CC5)cc4)cc3)cc3cc(F)c(-c4nnn[nH]4)cc32)CCC1 [Example 68]	1.5	31.3			> 25	520.8	3.48	72.5
O=C(Nc1ccc(-c2ccsc2)cc1)C(=O)Nc1ccc(-c2cc3cc(F)c(-c4nnn[nH]4)cc3n2C2CCC2)cc1 [Example 4]	3.2	110.3	< 3	103.4	4.5	155.2	> 50	1724.1
